From ChEMBL document CHEMBL4513101, “Naegleria gruberi Pathogen Box compounds screening” (2021)
The source made the active and inactive calls. Rule as the data show it: active = inhibition of 80% or more and inactive = less.

System: Naegleria gruberi
Assay: microbe, parasite or virus in culture
Assay type: functional
Conditions: NEG-M, CONC 10 uM
Description: Growth inhibiting activity of Naegleria gruberi in vitro

Structure (SMILES) | inhibition at 10 µM
CC1CS(=O)(=O)CCN1/N=C/c1ccc([N+](=O)[O-])o1 (configuration not stated) [NIFURTIMOX] | 11.1% (not active)
CCc1ccccc1-n1c(C)cn2c3c(=O)n(C(C(=O)OC)C(C)C)c(=O)n(C)c3nc12 (configuration not stated) | 4.4% (not active)
CC(=O)N1CCN(c2ccc(Oc3ccc(Cl)cc3O)cc2)CC1 | 0% (not active)
CCCCN(CCCC)c1c(C#N)cc(S(=O)(=O)Nc2ccccc2)cc1C#N | 23.9% (not active)
O=C([C@@H](c1ccc(Cl)cc1)c1cccnc1)N1CCN(c2ccc(C(F)(F)F)cc2)CC1 | 75.6% (not active)
O=C(NCCc1c[nH]c2ccccc12)c1cc2ccccc2oc1=O | 33.7% (not active)
CC(C)(C)n1nc(Cc2ccc(F)c(Cl)c2)c2c(N)ncnc21 | 32% (not active)
CC(C)C(Oc1cccc2ccccc12)C(=O)O (configuration not stated) | 1.3% (not active)
C[C@]1(O)C[C@@H](c2nc(-c3ccc4ccc(-c5ccccc5)nc4c3)c3c(N)nccn32)C1 [LINSITINIB] | 59.4% (not active)
COc1cc(C(F)(F)F)nc2ccc(C)c(N)c12 | 2.1% (not active)
CC(C)/N=c1\cc2n(-c3ccc(Cl)cc3)c3ccccc3nc-2cc1Nc1ccc(Cl)cc1 [CLOFAZIMINE] | 67.9% (not active)
CC(C)(C)c1cc(C(=O)Nc2cccnc2)cc(C(=O)Nc2cccnc2)c1 | 28% (not active)
CN1CCC(c2cc(-c3ccncc3)c(-c3ccc(F)cc3)[nH]2)CC1 | 0% (not active)
Cc1cc2nc(NC(=O)C(C)(C)C)nc(Cl)c2n1Cc1ccc(Cl)cc1 | 43% (not active)
CC[C@H](CO)NCCN[C@H](CC)CO | 26.7% (not active)
Cc1noc(C)c1C(=O)N1CCCC(c2[nH]c3c(C)cccc3c2-c2ccncc2)C1 (configuration not stated) | 27.1% (not active)
O=C1N(Cc2cc3ccccc3s2)CC2CN(Cc3ccccc3)CCN12 (configuration not stated) | 34.3% (not active)
Nc1cccnc1Nc1ccc(Cl)cc1 | 4.1% (not active)
COc1cccc(NC(=O)c2c(NC(=O)c3cccnc3)sc3c2CCC3)c1 | 62.6% (not active)
Cc1ccc(-c2cc(C(=O)Nc3cccnc3)c3cc(Br)ccc3n2)cc1 | 16.8% (not active)
CC(C)n1nc(-c2cc3c(Cl)cccc3[nH]2)c2c(N)ncnc21 | 72.2% (not active)
CNC(=O)c1nn(C)c2c1C(C)(C)Cc1cnc(Nc3ccc(N4CCN(C)CC4)cc3)nc1-2 [MILCICLIB] | 18.3% (not active)

Structure (SMILES) | inhibition at 10 µM
CCOc1ccc(-c2nc(CNCCc3ccc(F)cc3)cs2)cc1 | 42.4% (not active)
O=C(NC1CCCCC1)N1CCN(Cc2ccc3c(c2)OCO3)CC1 | 31.3% (not active)
Cc1ccc(S(=O)(=O)n2cc(-c3ccnc(N)c3)c3cc(Br)cnc32)cc1 | 53.9% (not active)
CCc1cc(=O)n(C)c(SC(C)C(=O)Nc2ccc(F)cc2)n1 (configuration not stated) | 10.4% (not active)
CC1CC1C(=O)NC1CCN(CC2(c3ccccc3)CCCCC2)CC1 (configuration not stated) | 43.8% (not active)
COc1ccc(Cn2cnc3c(-c4ccco4)nc(Cl)nc32)cc1 | 36.9% (not active)
NCCC(O)C(=O)N[C@@H]1C[C@H](N)[C@@H](OC2O[C@H](CN)[C@@H](O)[C@H](O)[C@H]2O)[C@H](O)C1OC1O[C@H](CO)[C@@H](O)[C@H](N)[C@H]1O (some centres not stated) | 0% (not active)
CNC1C(OC2C(OC3C(O)C(O)C(N=C(N)N)C(O)C3N=C(N)N)OC(C)C2(O)C=O)OC(CO)C(O)C1O (configuration not stated) | 0% (not active)
C[C@H](c1ccc2c(c1)CCCC2)N(C)c1ncc2c(N)nc(N)nc2n1 | 29.6% (not active)
Cc1cc(O)nc(-n2nc(C)cc2C)n1 | 3.8% (not active)
Oc1c(I)cc(I)c2cccnc12 [IODOQUINOL] | 51.6% (not active)
O=C(Nc1cnc2ccccc2c1)c1cccc(-n2cnnn2)c1 | 9.8% (not active)
COC(=O)c1c(NC(=O)c2c(F)c(F)c(F)c(F)c2F)sc2c1CCCCC2 | 30.9% (not active)
NCCCC(N)(C(=O)O)C(F)F (configuration not stated) [EFLORNITHINE] | 33.6% (not active)
CCOc1ccc(-c2nc(NC(=O)CS(=O)(=O)c3ccccc3)sc2C)cc1 | 50.9% (not active)
CC1=NN(c2nc3ccccc3s2)C(=O)C1Cc1cccc2ccccc12 (configuration not stated) | 57.2% (not active)
CCCc1ccc(S(=O)(=O)Nc2ccc(CN3CCN(CC4CC4)CC3)cc2)cc1 | 30.3% (not active)
Cc1nn(Cc2ccccc2)c(Cl)c1C(=O)NC1CCCCCC1 | 36.1% (not active)
COc1ccc(C2CC(c3cccs3)=NN2C(=O)c2ccco2)cc1OC (configuration not stated) | 34.6% (not active)
O=C(Nc1ccccc1-c1nc2c(C(=O)O)cccc2o1)c1ccccc1 | 39.5% (not active)
CN1CCCN(C(c2ccccc2)c2ccc(Cl)cc2)CC1 (configuration not stated) [HOMOCHLORCYCLIZINE] | 11.6% (not active)
CCc1nn(C)c(C(=O)NCc2ccc(Oc3ccc(C)cc3)cc2)c1Cl [TOLFENPYRAD] | 93.3% (active)

Structure (SMILES) | inhibition at 10 µM
CC1COC2(CCN(c3nc(=O)c4cc(C(F)(F)F)cc([N+](=O)[O-])c4s3)CC2)O1 (configuration not stated) | 38.4% (not active)
CCC(=O)Nc1ccccc1C(=O)Nc1ccccn1 | 35.7% (not active)
COc1nc2ccc(Br)cc2cc1[C@@H](c1ccccc1)[C@@](O)(CCN(C)C)c1cccc2ccccc12 [BEDAQUILINE] | 56.3% (not active)
CCN(CC)S(=O)(=O)c1ccc(C(=O)Nc2cc(C)nn2-c2nc(C)c(C)c(=O)[nH]2)cc1 | 41.8% (not active)
O=C(Nc1ccc2c(c1)B(O)OC2)c1ccccc1C(F)(F)F | 89.8% (active)
COc1cccc(-c2nc3c(N4CCCC4)cccc3n2CC2CCCN2)n1 (configuration not stated) | 51.5% (not active)
CC(C)NCC(=O)Nc1cccc(C(=O)Nc2cccc(C(F)(F)F)c2)c1 | 4.8% (not active)
O=C(CCC1CCCCC1)Nc1cccc(-c2nnc(-c3ccco3)o2)c1 | 30% (not active)
CNCCC(Oc1ccc(C(F)(F)F)cc1)c1ccccc1 (configuration not stated) [FLUOXETINE] | 7.5% (not active)
Cc1[nH]c2ccccc2c1C(c1cccs1)N1CCN(C)CC1 (configuration not stated) | 23.9% (not active)
O=C(Nc1nc(-c2ccccn2)cs1)C1CC1c1ccccc1F (configuration not stated) | 46.3% (not active)
Nc1ncnc2c1c(Cc1cccc3ccccc13)nn2CC1CCNCC1 | 11.4% (not active)
Cc1nc(-c2cccc(NCc3ccccc3)c2)[nH]c1C | 8.1% (not active)
COc1cc(CN2CCC3(C=Cc4ccccc43)CC2)cc2c1OCO2 | 38.6% (not active)
CC(=O)NC[C@@H]1CN(c2ccc(N3CCOCC3)c(F)c2)C(=O)O1 | 20.1% (not active)
Nc1nccc2ccc(Oc3ccncc3)cc12 | 3% (not active)
CN1CCN(CCCOc2ncc(Nc3ncc(-c4ccc(C(F)(F)F)c(F)c4)nc3C(N)=O)cn2)CC1 | 12.9% (not active)
Cc1nn(C(=O)Nc2cccc(C(F)(F)F)c2)c(C)c1Sc1ncccn1 | 16.7% (not active)
N=C(N)Nc1ccc(-c2ccc(-c3ccc(NC(=N)N)cc3Cl)o2)c(Cl)c1 | 24% (not active)
Nc1nc2cc(-c3cncc(Oc4ccc(F)cc4)c3)ccc2[nH]1 | 35.5% (not active)
COc1cccc(OCC(=O)c2ccc(Br)cc2)c1 | 33.4% (not active)
Brc1cncc(-c2cc(NCCCn3ccnc3)nc(-c3ccccc3)n2)c1 | 33.8% (not active)

Structure (SMILES) | inhibition at 10 µM
c1csc(-c2cnc3sc(NCC4CCOCC4)nn23)c1 | 39.9% (not active)
O=C(NCc1ccoc1)N1CCN(Cc2ccc3c(c2)OCO3)CC1 | 28.7% (not active)
CO[C@H]1/C=C\O[C@@]2(C)Oc3c(C)c(O)c4c(O)c(/c(=C/NN5CCN(C)CC5)c(O)c4c3C2=O)=N\C(=O)/C(C)=C\C=C/[C@H](C)[C@H](O)[C@@H](C)[C@@H](O)[C@@H](C)[C@H](OC(C)=O)[C@@H]1C | 0% (not active)
Cc1cccc(NC(=O)c2cc(S(=O)(=O)N(C)c3ccc(F)cc3)ccc2Cl)n1 | 42.3% (not active)
CC(C)(C)OC(=O)N1CCN(c2nccc(-c3ccc(-c4ccc(Cl)cc4)s3)n2)CC1 | 17% (not active)
CCc1nc2ccc(Cl)cn2c1C(=O)NCc1ccc(N2CCC(c3ccc(OC(F)(F)F)cc3)CC2)cc1 [TELACEBEC] | 42.4% (not active)
O=C(Nc1ccc(N2CCNCC2)nc1)c1oc(-c2ccccc2)nc1C(F)(F)F | 15.4% (not active)
COc1cccc(-n2nnnc2S(=O)(=O)Cc2ccccc2)c1 | 85.8% (active)
CC(C)c1ncc(-c2ccncc2)c([C@H]2CC[C@H](CNC(=O)c3cccnc3)CC2)n1 | 32.5% (not active)
O=C(NC1CC1)c1ccc(N2CCOc3ccc(Cl)cc32)s1 | 27.6% (not active)
Cn1ncc2c(N3CCOCC3)nc(NCCc3c[nH]c4ccccc34)nc21 [TDR79432] | 45.9% (not active)
Cc1cc(Nc2ccncc2)n2nc(C)c(-c3ccccc3Cl)c2n1 | 27.7% (not active)
Cc1ccc2[nH]c(C3CCCNC3)c(-c3ccncc3)c2c1 (configuration not stated) | 9.5% (not active)
CC(=O)Nc1ccc(-c2noc(CC3CCCN(Cc4cccc(F)c4C)C3)n2)cc1 (configuration not stated) | 37.2% (not active)
CC(=O)Oc1ccccc1C(=O)Nc1ncc([N+](=O)[O-])s1 [NITAZOXANIDE] | 62.7% (not active)
CCn1ncc2c(NC3CCOCC3)c(CNC(=O)c3ccnn3C)c(C)nc21 | 0.8% (not active)
OCc1ccc(-c2cncc(Nc3cccc(Cl)c3)c2)cc1 | 18.8% (not active)
Clc1cccc(CO[C@H]2CCc3ccccc3[C@@H]2n2ccnn2)c1 | 12.6% (not active)
CC(C(=O)N1CCCC1)N1CCN(S(=O)(=O)c2ccc(C(C)(C)C)cc2)CC1 (configuration not stated) | 4.7% (not active)
COc1ccc(N(CCc2cccc(C)n2)C(C)=O)cc1 | 19.6% (not active)
Cc1cc(OCC(=O)Nc2ccc(C(C)C)cc2)n(C)c(=O)c1C#N | 18.6% (not active)
